Earlier results, collected in PMC9217999 (Targeted Oncology, 2022).

Columns and labels:
Details in all cases: cited from earlier work
[1] = tested on: recurrent/refractory LGG
[2] = tested on: NF1 and inoperable PN
[3] = tested on: NF1-associated PN

SMILES	PR (bidimensional measurements on T2/FLAIR) ([1]; 5/25, four with BRAF aberrations)	2-year PFS [1]	Confirmed PR rate [2]	PR rate [2]	Stable disease [2]	Responses ongoing ([3]; 10/12 responses)	Patients with PR ([3]; 12/26 patients, preliminary data)
Cn1cnc2c(F)c(Nc3ccc(Br)cc3Cl)c(C(=O)NOCCO)cc21 [selumetinib]	20%	69%	68%	74%	12%	–	–
CC(=O)Nc1cccc(-n2c(=O)n(C3CC3)c(=O)c3c(Nc4ccc(I)cc4F)n(C)c(=O)c(C)c32)c1 [trametinib]	–	–	–	–	–	83%	46%
